Laboratory results from patent US12247033B2, “Triazole-substituted imidazo[1,2-a]pyrimidines as cGAS inhibitors” (GlaxoSmithKline Intellectual Property Development Limited, priority 2022, dated 2025).

Assays:
[1] = test system: CGAS; assay: CGAS whole blood cytokine release assay (384-well, BacMam stimulation, IP-10 by cytometric bead array); assay type: cell-based; settings: Homo sapiens, 6 h; read-out: hWB pXC50 (converted)
Procedure: Blood collection: Blood was collected in a tube containing 10% Sodium Heparin (5 ml/45 ml blood final).
Protocol for CGAS Whole Blood Cytokine Release Assay: Compounds serial diluted at 1:3 were provided at 150 nL per well, in a 384 well polypropylene microplate (cat. 781280; Greiner Bio-One, Frickenhausen, Germany). 5 μL of PBS/20% Null BacMam was dispensed to all wells except for column 18 on a Multidrop Combi (Thermo Scientific, Waltham, MA). 5 uL of PBS was dispensed into column 18. The Bravo (Agilent, Santa Clara, CA) was used to transfer 45 uL of donor derived blood into the compound plates. The Bravo protocol mixed the blood and compound/PBS 5 times. The plates were incubated at 37° C., 5% CO2, for 6 hours. At the 6 hour mark the plates were removed and centrifuged for 10 minutes at 3000 RPM. 3 uL of supernatant was transferred from the plate to a 384 well NBS microplate (cat. 4513; Corning Life Sciences, Corning, NY). These plates were sealed with adhesive foil and stored in a −80 freezer until ready for analysis.
For cytokine detection, Human IP-10 BD cytometric bead array (CBA) beads (BD Biosciences, Franklin Lakes, NJ) were used. Capture bead solution was prepared by performing a 1:50 dilution of the IP-10 capture bead stock solution in BD diluent for serum/plasma (cat. 51-9003991 BD Biosciences, Franklin Lakes, NJ). 2 μL of this solution was added per well to the assay microplates which were then sealed with adhesive foil and incubated at room temperature for 2 h in the dark. Detection reagent was further prepared by performing a 1:50 dilution of the detection reagent stock solution. 2 μL of detection reagent was added per well and microplates were sealed with adhesive foil and incubated at room temperature in the dark for 1 h. After the 1 h incubation 3 uL of BD CBA wash buffer was added per well of the microplates. Data were acquired on an iQue Screener flow cytometer. The iQue used fluorescence detection to quantify the inhibition of IP-10 present in the sample wells. A sip time of 1 second per sample was used. The blue laser with excitation of 488 nm and emission filters 585/40 nm were used to capture the mean and median of IP-10 with the detector in logarithmic mode (FL2-H).
All data analysis was carried out in IDBS ActivityBase XE.

[2] = molecular target: human CGAS (157-522) (Homo sapiens, UniProt Q8N884); assay: biochemical;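 also: biochemical enzyme reaction, 2′3′-cGAMP product measured by RapidFire mass spectrometry (MRM) normalised to c-di-UMP internal standard, inhibition of product formation relative to high and low control wells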
Chain of human CGAS (157-522) (Q8N884 157-522): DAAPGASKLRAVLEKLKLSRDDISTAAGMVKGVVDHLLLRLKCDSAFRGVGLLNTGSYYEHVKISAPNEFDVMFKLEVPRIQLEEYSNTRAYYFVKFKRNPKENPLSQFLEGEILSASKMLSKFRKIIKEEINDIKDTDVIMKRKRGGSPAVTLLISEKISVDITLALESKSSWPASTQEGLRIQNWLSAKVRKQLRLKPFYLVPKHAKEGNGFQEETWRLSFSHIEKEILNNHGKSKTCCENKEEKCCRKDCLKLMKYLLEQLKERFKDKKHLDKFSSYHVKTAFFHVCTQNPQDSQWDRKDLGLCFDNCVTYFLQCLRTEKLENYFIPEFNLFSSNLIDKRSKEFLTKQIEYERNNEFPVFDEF
Procedure: Compounds were serially diluted 2, 3, or 4-fold in neat DMSO to generate 11-point dose response curves and then 250 nL compound or DMSO solution was transferred to Greiner 384-well V-bottom assay plates (Catalog #781280) using an Echo acoustic dispenser (Labcyte). A solution of 150 μM ATP, 150 μM GTP, 20 μM pppGpA (GTP-2′5′-AMP, custom synthesis from ChemGenes), and 10 μg/mL sheared salmon sperm DNA (Sigma, Catalog #D1626) in assay buffer (20 mM Trizma, pH 7.5, 10 mM magnesium chloride, 0.3 mM CHAPS, and 0.01% (w/v) bovine serum albumin) was added to columns 1-17, 19-24 of the plate at 12.5 μL/well using a Combi liquid handler (ThermoFisher). A 12.5 μL/well low control solution containing 150 μM ATP, 150 μM GTP, 20 μM pppGpA in assay buffer was added to column 18 using the Combi. A 12.5 μL/well solution of 10-100 nM human CGAS (157-522) in assay buffer was then added to all wells of the plate using the Combi. […] Reactions were quenched by added 50 μL/well of 0.5% (v/v) trifluoroacetic acid (TFA) in mass spectrometry grade deionized water containing 5 μM cyclic-di-UMP (ci-di-UMP; Invivogen Catalog #tlrl-cdu) as the internal standard (IS). Plates were centrifuged for 1 min and then quenched reactions were analyzed using a RF-MS 300 system operating in a Multiple Reaction Monitoring (MRM) detection mode.
Samples (10 μL injection volume) were passed over a silica C18/type C solid phase extraction (SPE) cartridge for analyte (2′3′-cyclic guanosine monophosphate adenosine monophosphate (2′3′-cGAMP), product of biochemical reaction)/pppGpA/c-di-UMP IS adsorption. Adsorbed samples were desalted for 3000 ms using a 100% water eluent A/desalting solution. Afterwards, desalted samples were eluted using a 0.5% TFA in 20%/80% acetonitrile/water eluent B/elution solution directly into either a Sciex 4000, 5000 or 5500 triple quadrupole mass spectrometer (QQQ-MS) for MRM analyte/IS detection. QQQ-MS detection conditions were as follow: scan type: MRM; curtain (CUR) gas: 30 psi; nebulizer (GS1) gas: 50 psi; drying (GS2) gas: 60 psi; collisionally activated dissociation (CAD) gas: 12 relative setting; precursor ion (Q1) masses: 2′3′-cGAMP: m/z 675.1 Da/pppGpA: m/z 853.0 Da/c-di-UMP: m/z 613.1 Da; fragment ion (Q3) masses: 2′3′-cGAMP: m/z 524.1 Da/pppGpA: m/z 702.0 Da/c-di-UMP: 307.1 Da; declustering potentials (DPs): 2′3′-cGAMP: +81 V/pppGpA: +85 V/c-di-UMP: +85 V; entrance potential: +10 V (all analytes); collision energies (CEs): 2′3′-cGAMP: +33 V/pppGpA: +36 V/c-di-UMP: +35 V; collision cell exit potential (CXP): +10 V (all analytes); interface heater (Sciex 4000/5000 only): on; Q1 resolution: unit (all analyte); Q3 resolution: unit (all analytes). The area under the curve (AUC) for all analytes was obtained using the RapidFire Integrator software application to calculate AUC-2′3′-cGAMP/AUC-c-di-UMP intensity ratio. Percent product formation was calculated by comparison to column 6 (high control)/column 18 (low control) responses. The % product inhibition was calculated as follows:
[formula] where A is the minimum response, B is the maximum response, C is the log10*XC50, D is the slope factor, and x is the log10 compound concentration [M] in ABASE XE.

Structure (SMILES)	IC50 [1] [nM]	IC50 [2] [nM]
FC(F)c1n[nH]c(-c2nc3ncccn3c2-c2cnc[nH]2)n1 [Example 50, 3-(difluoromethyl)-5-[3-(1H-imidazol-5-yl)imidazo[1,2-a]pyrimidin-2-yl]-1H-1,2,4-triazole]	79.4	3.16
Brc1n[nH]c(-c2nc3nc4c(cn3c2-c2cnc[nH]2)CCO4)n1 [Example 57, 11-(3-bromo-1H-1,2,4-triazol-5-yl)-12-(1H-imidazol-5-yl)-6-oxa-1,8,10-triazatricyclo[7.3.0.0^3,^7]dodeca-2,7,9,11-tetraene]	63.1	5.01
CC(=O)N1Cc2cn3c(-c4cnc[nH]4)c(-c4nc(C(F)(F)F)n[nH]4)nc3nc2C1 [Example 68, 1-[12-(1H-imidazol-5-yl)-11-[3-(trifluoromethyl)-1H-1,2,4-triazol-5-yl]-1,5,8,10-tetraazatricyclo[7.3.0.0^3,^7]dodeca-2,7,9,11-tetraen-5-yl]ethan-1-one]	1260	5.01
FC(F)(F)c1n[nH]c(-c2nc3ncc(CN4CCOCC4)cn3c2-c2c[nH]cn2)n1 [Example 70, 4-{[3-(1H-imidazol-4-yl)-2-[3-(trifluoromethyl)-1H-1,2,4-triazol-5-yl]imidazo[1,2-a]pyrimidin-6-yl]methyl}morpholine]	2000	3.16
FC(F)(F)c1n[nH]c(-c2nc3nc4c(cn3c2-c2cnc[nH]2)COCC4)n1 [Example 71, 6-(1H-imidazol-5-yl)-5-[3-(trifluoromethyl)-1H-1,2,4-triazol-5-yl]-11-oxa-2,4,7-triazatricyclo[7.4.0.0^3,^7]trideca-1,3,5,8-tetraene]	126	5.01
FC(F)(F)c1n[nH]c(-c2nc3nc4c(cn3c2-c2cn[nH]c2)COCC4)n1 [Example 72, 6-(1H-pyrazol-4-yl)-5-[3-(trifluoromethyl)-1H-1,2,4-triazol-5-yl]-11-oxa-2,4,7-triazatricyclo[7.4.0.0^3,^7]trideca-1,3,5,8-tetraene]	15800	12.6
CN1CCc2nc3nc(-c4nc(C(F)(F)F)n[nH]4)c(-c4cnc[nH]4)n3cc2C1 [Example 73, 6-(1H-imidazol-5-yl)-11-methyl-5-[3-(trifluoromethyl)-1H-1,2,4-triazol-5-yl]-2,4,7,11-tetraazatricyclo[7.4.0.0^3,^7]trideca-1,3,5,8-tetraene]	794	6.31
FC(F)(F)c1n[nH]c(-c2nc3nc4c(cn3c2-c2cnc[nH]2)CNCC4)n1 [Example 74, 6-(1H-imidazol-5-yl)-5-[3-(trifluoromethyl)-1H-1,2,4-triazol-5-yl]-2,4,7,11-tetraazatricyclo[7.4.0.0^3,^7]trideca-1,3,5,8-tetraene]	1260	7.94
CC(C)(C)C(=O)n1cnc(-c2c(-c3nc(C(F)(F)F)n[nH]3)nc3ncccn23)c1 [Example 81, 2,2-dimethyl-1-(4-{2-[3-(trifluoromethyl)-1H-1,2,4-triazol-5-yl]imidazo[1,2-a]pyrimidin-3-yl}-1H-imidazol-1-yl)propan-1-one]	158	3.98
FC(F)(F)c1n[nH]c(-c2nc3nc4c(cn3c2-c2cnc[nH]2)CNCC4(F)F)n1 [Example 83, 13,13-difluoro-6-(1H-imidazol-5-yl)-5-[3-(trifluoromethyl)-1H-1,2,4-triazol-5-yl]-2,4,7,11-tetraazatricyclo[7.4.0.0^3,^7]trideca-1,3,5,8-tetraene]	316	7.94

The remaining lines, values ahead:

IC50 [1] [nM]	IC50 [2] [nM]	Structure (SMILES)
1000	7.94	CC(C)c1ccn2c(-c3cnc[nH]3)c(-c3nc(C(F)(F)F)n[nH]3)nc2n1 [Example 55, 5-[3-(1H-imidazol-5-yl)-7-(propan-2-yl)imidazo[1,2-a]pyrimidin-2-yl]-3-(trifluoromethyl)-1H-1,2,4-triazole]
316	10	COc1cnc2nc(-c3nc(C(F)(F)F)n[nH]3)c(-c3cnc[nH]3)n2c1 [Example 58, 5-[3-(1H-imidazol-5-yl)-6-methoxyimidazo[1,2-a]pyrimidin-2-yl]-3-(trifluoromethyl)-1H-1,2,4-triazole]
398	12.6	OCc1cnc2nc(-c3nc(C(F)(F)F)n[nH]3)c(-c3cnc[nH]3)n2c1 [Example 61, [3-(1H-imidazol-5-yl)-2-[3-(trifluoromethyl)-1H-1,2,4-triazol-5-yl]imidazo[1,2-a]pyrimidin-6-yl]methanol]
794	6.31	FC(F)(F)c1n[nH]c(-c2nc3nc4c(cn3c2-c2cnc[nH]2)CNC4)n1 [Example 63, 12-(1H-imidazol-5-yl)-11-[3-(trifluoromethyl)-1H-1,2,4-triazol-5-yl]-1,5,8,10-tetraazatricyclo[7.3.0.0^3,^7]dodeca-2,7,9,11-tetraene]
316	2.51	FC(F)(F)c1n[nH]c(-c2nc3ncc(C4CCOC4)cn3c2-c2cnc[nH]2)n1 (centres unmarked) [Example 66, 5-[3-(1H-imidazol-5-yl)-6-(oxolan-3-yl)imidazo[1,2-a]pyrimidin-2-yl]-3-(trifluoromethyl)-1H-1,2,4-triazole]
126	2.51	COCc1cnc2nc(-c3nc(C(F)(F)F)n[nH]3)c(-c3cnc[nH]3)n2c1 [Example 69, 5-[3-(1H-imidazol-5-yl)-6-(methoxymethyl)imidazo[1,2-a]pyrimidin-2-yl]-3-(trifluoromethyl)-1H-1,2,4-triazole]
631	10	CNCc1cnc2nc(-c3nc(C(F)(F)F)n[nH]3)c(-c3cnc[nH]3)n2c1 [Example 75, {[3-(1H-imidazol-5-yl)-2-[3-(trifluoromethyl)-1H-1,2,4-triazol-5-yl]imidazo[1,2-a]pyrimidin-6-yl]methyl}(methyl)amine]
398	2	FC(F)(F)c1n[nH]c(-c2nc3ncc(Br)cn3c2-c2cnc[nH]2)n1 [Example 77, 5-[6-bromo-3-(1H-imidazol-5-yl)imidazo[1,2-a]pyrimidin-2-yl]-3-(trifluoromethyl)-1H-1,2,4-triazole]
398	7.94	FC(F)(F)c1n[nH]c(-c2nc3ncc(COC4CCOC4)cn3c2-c2cnc[nH]2)n1 (centres unmarked) [Example 78, 5-[3-(1H-imidazol-5-yl)-6-[(oxolan-3-yloxy)methyl]imidazo[1,2-a]pyrimidin-2-yl]-3-(trifluoromethyl)-1H-1,2,4-triazole]
100	3.16	CCOCc1cnc2nc(-c3nc(C(F)(F)F)n[nH]3)c(-c3cnc[nH]3)n2c1 [Example 79, 5-[6-(ethoxymethyl)-3-(1H-imidazol-5-yl)imidazo[1,2-a]pyrimidin-2-yl]-3-(trifluoromethyl)-1H-1,2,4-triazole]
12600	3.16	FC(F)(F)c1n[nH]c(-c2nc3ncc(COC4CCNC4)cn3c2-c2cnc[nH]2)n1 (centres unmarked) [Example 80, 5-[3-(1H-imidazol-5-yl)-6-[(pyrrolidin-3-yloxy)methyl]imidazo[1,2-a]pyrimidin-2-yl]-3-(trifluoromethyl)-1H-1,2,4-triazole]
200	5.01	FC(F)(F)c1n[nH]c(-c2nc3ncc(C4CCCO4)cn3c2-c2cnc[nH]2)n1 (centres unmarked) [Example 82, 5-[3-(1H-imidazol-5-yl)-6-(oxolan-2-yl)imidazo[1,2-a]pyrimidin-2-yl]-3-(trifluoromethyl)-1H-1,2,4-triazole]
